Data on six compounds can be found in ChEMBL document CHEMBL3638901, “Thienopyrazole derivative having PDE7 inhibitory activity” (2014).

The target of the experiment is High affinity 3',5'-cyclic-AMP phosphodiesterase 7A (Homo sapiens, UniProt Q13946). Description: Inhibition Assay: The PDE 7 (phosphodiesterase VII) inhibiting effect of the compounds of the present invention was performed by the following method, which was modified assay method described in Biochemical. Pharmacol. 48(6), 1219-1223 (1994). (1) The active fraction of PDE 7 (phosphodiesterase VII) was obtained. That is, MOLT-4 (obtainable from ATCC as ATCC No. CRL-1582), which was cell line of human acute lymphoblastic […] T cells, was incubated in RPMI1640 culture medium containing 10% fetal bovine serum to obtain 5x10^8 MOLT-4 cells. The cells were collected by centrifugation and suspended with 10 mL of buffer solution A [25 mM of tris-HCl, 5 mM of 2-mercaptoethnol, 2 mM of benzamidine, 2 mM of EDTA, 0.1 mM of 4-(2-aminoethyl)benzensulfonyl hydrochloride; pH 7.5], then homogenized by Polytron homogenizer. The homogenate were centrifuged under 25,000xG for 10 minutes at 4 C. The supernatant was separated and thus obtained supernatant was further centrifuged under 100,000xG for 60 minutes.
High affinity 3',5'-cyclic-AMP phosphodiesterase 7A, sequence (Q13946 whole entry): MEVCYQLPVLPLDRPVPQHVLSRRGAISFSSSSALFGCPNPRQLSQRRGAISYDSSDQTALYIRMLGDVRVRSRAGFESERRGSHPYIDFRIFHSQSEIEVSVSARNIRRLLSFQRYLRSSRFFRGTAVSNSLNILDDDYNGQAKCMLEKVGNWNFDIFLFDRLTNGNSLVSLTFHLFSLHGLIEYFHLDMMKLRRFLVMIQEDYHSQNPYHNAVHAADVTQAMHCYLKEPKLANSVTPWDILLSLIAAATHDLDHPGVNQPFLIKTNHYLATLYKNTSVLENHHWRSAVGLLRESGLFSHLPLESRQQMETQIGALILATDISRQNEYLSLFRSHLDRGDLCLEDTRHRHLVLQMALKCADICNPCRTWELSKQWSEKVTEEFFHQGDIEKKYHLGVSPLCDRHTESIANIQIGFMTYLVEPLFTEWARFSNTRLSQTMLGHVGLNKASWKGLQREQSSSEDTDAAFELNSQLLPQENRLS
As to `Cc1nn(C2CCCCC2)c2sc(C(=O)Nc3ccc(N4CCOCC4)cc3)cc12`, the half-inhibitory concentration (IC50) was determined as 34 nM.
Under `COc1cc(NC(=O)c2cc3c(C)nn(C4CCCCC4)c3s2)ccc1C(=O)N1CCN(C)CC1` stands 85 nM; under `COc1cc(NC(=O)c2cc3c(C)nn(C4CCCCC4)c3s2)ccc1C(=O)N1CCC(O)CC1`, 65 nM; under `Cc1nn(C2CCCCC2)c2sc(C(=O)Nc3ccc(N4CCN(C)CC4)c(Cl)c3)cc12`, 55 nM.
Compound `Cc1nn(C2CCCCC2)c2sc(C(=O)NC3CC[C@@H](C(=O)N(C)C)C3)cc12` (stereo partly specified) registered an IC50 of 13 nM.
The figure for `Cc1nn(C2CCOCC2)c2sc(C(=O)N[C@H]3CC[C@H](N4CCOCC4)CC3)cc12` is 24 nM.

By IC50 is commonly meant the concentration needed to halve the response being measured.
